Measurements reported in US7935699B2, “Pyrazole glucokinase activators” (Hoffmann-La Roche Inc., priority 2006, dated 2011).

Legend:
[1] = test system: Diet-Induced Obese (DIO) C57BL/6J mice; assay: Glucokinase activator in vivo screen, blood glucose in DIO mice; conditions: Mus musculus; 2 hours post 25 mg/kg oral dose in DIO mice, vs control; read-out: % gluc @ 2 H (% glucose lowering vs control)
Protocol: Glucokinase Activator in vivo Screen Protocol in Lean and Diet Induced Obese Mice: Lean or Diet-Induced Obese (DIO) C57BL/6J mice were orally dosed via gavage with Glucokinase (GK) activator (50 mg/kg body weight for lean mice, 25 mg/kg body weight for DIO mice) following a two hour fasting period. Blood glucose determinations were made four times during the six hour post-dose study period.
C57Bl/6J mice were obtained from Jackson Laboratory (Bar Harbor, Me.) and were maintained in a light-dark cycle with lights on from 0600-1800 hr. For studies in lean mice, the mice were received at age six weeks and given ad libitum access to control diet (LabDiet 5001 chow, PMI Nutrition, Brentwood, Mo.), and were at least age 11 weeks at the time of study. For studies in the DIO model, the mice were received at age five weeks and given ad libitum access to Bio-Serv F3282 High Fat Diet (Frenchtown, N.J.), and were at least age 16 weeks at the time of study. The experiments were conducted during the light phase of the light-dark cycle. Mice (n=6) are weighed and fasted for a two hour period prior to oral treatment. GK activators are formulated in Gelucire vehicle (Ethanol:Gelucire44/14:PEG400q.s. 4:66:30 v/w/v. For studies in lean mice, the mice were dosed orally with 5.0 μL per gram of body weight with 5 ml/kg×10.0 mg/ml formulation to equal a 50 mg/kg dose. For studies in DIO mice, the mice were dosed orally with 5.0 μL per gram of body weight with […] formulation to equal a 25 mg/kg dose. Immediately prior to dosing, a pre-dose (time zero) blood glucose reading was acquired by snipping off a small portion of the animal's tail (˜1 mm) and collecting 15 μL blood into a heparinized capillary tube for analysis. Following GK activator administration, additional blood glucose readings were taken at 2, 4 and 6 hours post dose from the same tail wound. Results were interpreted by comparing the mean blood glucose values of six vehicle treated mice with six GK activator treated mice over the six hour study duration.

[2] = target: T1, Recombinant human liver GK1 (GST-GK) (Homo sapiens, UniProt P35557); assay: Glucokinase in vitro assay (G6PDH-coupled, NADH at OD340); format: biochemical; conditions: 25° C., 5 mM D-glucose, 10% DMSO, GST-GK
T1 construct: made in house; host or cells: E. coli
T1 sequence (P35557 1-466 isoform P35557-2): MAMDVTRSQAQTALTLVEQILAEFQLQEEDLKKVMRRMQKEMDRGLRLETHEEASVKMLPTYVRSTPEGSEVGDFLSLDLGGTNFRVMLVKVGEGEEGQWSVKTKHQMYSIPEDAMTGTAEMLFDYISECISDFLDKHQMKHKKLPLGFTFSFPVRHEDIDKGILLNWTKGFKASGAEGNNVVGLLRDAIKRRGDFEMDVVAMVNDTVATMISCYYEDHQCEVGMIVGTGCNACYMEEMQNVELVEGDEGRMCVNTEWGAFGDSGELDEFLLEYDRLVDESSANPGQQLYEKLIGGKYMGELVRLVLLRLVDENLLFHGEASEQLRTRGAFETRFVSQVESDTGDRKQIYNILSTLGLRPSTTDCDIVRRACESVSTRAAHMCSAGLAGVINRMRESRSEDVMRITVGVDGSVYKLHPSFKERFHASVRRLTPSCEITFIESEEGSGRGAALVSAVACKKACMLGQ
Protocol: Glucokinase In Vitro Assay Protocol: Glucokinase (GK) was assayed by coupling the production of glucose-6-phosphate to the generation of NADH with glucose-6-phosphate dehydrogenase (G6PDH, 0.75-1 kunits/mg; Boehringer Mannheim, Indianapolis, Ind.) from Leuconostoc mesenteroides as the coupling enzyme (Scheme 2).
Recombinant human liver GK1 was expressed in E. coli as a glutathione S-transferase fusion protein (GST-GK) [Liang et al, 1995] and was purified by chromatography over a glutathione-Sepharose 4B affinity column using the procedure provided by the manufacturer (Amersham Pharmacia Biotech, Piscataway, N.J.).
The assay was conducted at 25° C. in a flat bottom 96-well tissue culture plate from Costar (Cambridge, Mass.) with a final incubation volume of 120 μL. The incubation reaction contained the following: 25 mM Hepes buffer (pH 7.1), 25 mM KCl, 5 mM D-glucose, 1 mM ATP, 1.8 mM NAD, 2 mM MgCl2, 1 μM sorbitol-6-phosphate, 1 mM dithiothreitol, test drug or 10% DMSO, 1.8 unit/ml G6PDH, and GK (see below). All organic reagents were >98% pure and were from Boehringer Mannheim with the exceptions of D-glucose and Hepes which were from Sigma Chemical Co, St Louis, Mo. Test compounds were dissolved in DMSO and were added to the incubation reaction minus GST-GK in a volume of 12 μL to yield a final DMSO concentration of 10%. This mix was pre-incubated in the temperature controlled chamber of a SPECTRAmax 250 microplate spectrophotometer (Molecular Devices Corporation, Sunnyvale, Calif.) for 10 minutes to allow temperature equilibrium and then the reaction was started by the addition of 20 μL GST-GK.
After addition of enzyme, the increase in optical density (OD) at 340 nm was monitored over a 10 minute incubation period as a measure of GK activity. Sufficient GST-GK was added to produce an increase in OD340 of 0.08 to 0.1 units over the 10 minute incubation period in wells containing 10% DMSO but no test compound. Preliminary experiments established that the GK reaction was linear over this period of time even in the presence of activators that produced a 5-fold increase in GK activity. The GK activity in control wells was compared with the activity in wells containing test GK activators, and the concentration of activator that produced a 50% increase in the activity of GK, i.e., the SC1.5, was calculated.

Q: `O=C(Nc1ccn(CCCO)n1)[C@H](CC1CCCC1)c1cccc(C(F)(F)F)c1` [Example 85, 3-Cyclopentyl-N-[1-(3-hydroxy-propyl)-1H-pyrazol-3-yl]-2(R)-(3-trifluoromethyl-phenyl)-propionamide] was tested. Which change in vivo at 25 mg/kg [1] did it give?
A: The change in vivo at 25 mg/kg was -20.5%.

Q: What about the “SC1.5 (concentration of activator that produced a 50% increase in the activity of GK)” value [2] of the same molecule?
A: The value was 0.779 µM.
